Experimental data taken from patent US20120100073A1, “PET RADIOTRACERS FOR IMAGING FATTY ACID METABOLISM AND STORAGE” (WASHINGTON UNIVERSITY, priority 2009, published 2012).

Key:
β-oxidation = settings: literature ref. 17, cited from earlier work
[1] = microPET imaging and myocardial time-activity curves (tracer kinetics) in a fed rat; assay type: in vivo
Procedure: Animal Preparation. All animal procedures are conducted in compliance with the guidelines for the care and use of research animals established by the Animal Studies Committee of Washington University. Animal preparation is performed as described previously.^24-26 Rats are housed in metabolism cages and anesthetized by inhalation of […] isoflurane administered via an induction chamber. Anesthesia can be maintained throughout the imaging session by delivering 1%-1.5% isoflurane via a custom-designed nose cone. Venous access is via the right jugular vein. Body temperature can be maintained using a circulating water blanket and a heat lamp. Heart and respiration rates can be monitored throughout the process.
PET Acquisition. The animals can be secured in a custom-designed acrylic restraining device and placed inside the field of view of the small-animal imaging PET scanner. Imaging acquisition starts Ss after a bolus injection of tracer via the right jugular catheter. The imaging protocol consists of dynamic acquisition of microPET images of ^11C-palmitate (5-7mCI) followed by ^18F-FAA or by ^18F-VLDL (5-7mCi) alone. Dynamic mage acquisition during ^11C-palmitate and either ^18F-FAA or ^18F-FAA-VLDL can be 30 and 60 min, respectively. The total time of the imaging session can be ˜3 hrs. Three whole-blood arterial samples are collected throughout the study to measure whole blood glucose (5 μL), free fatty acid (20 μL), and insulin (5 μL) levels to confirm the metabolic state of the animals,
Image Processing/Analysis. Dynamic images can be reconstructed using filtered backprojection with a 2.5 zoom on the heart and 40 frames per imaging session. The input function is reconstructed by applying the hybrid image-blood-sampling algorithm as described previously.^25 A myocardial region of interest is placed to generate a myocardial time-activity curve (TAC). The ^18F-FAA and ^18F-FAA-VLDL blood and myocardial TACs can be compared with the ^11C-palmitate TACs for both defiing characteristics (e.g., height and shape) as well as similar kinetics based exponential curve-fitting algorithms. […]

[2] = previous studies; rapid phase = oxidation, slow phase = storage; cited from earlier work

In the case of CCCC([18F])CCCCCCCSCCCCC(=O)O (racemic) [FTHA, 14-(R,S)-^18F-fluoro-6-thiaheptadecanoic acid], the “uptake and retention versus inhibition of β-oxidation by hypoxia” value (β-oxidation) is listed as “insensitive to the inhibition of β-oxidation by hypoxia”.

For O=C(O)CCSCCCCCCCCCCCC[18F] [FTP, ^18F-fluoro-thia-palmitate], the “deposition versus β-oxidation” value (β-oxidation; normal oxygenation and hypoxic conditions) is given as “proportional to β-oxidation under normal oxygenation and hypoxic conditions”.

For CCCCCCCCCCCCCCC[11C](=O)O [^11C-palmitate], the “myocardial tracer uptake and washout pattern” value ([1]; blood and myocardial TACs, fed rat) is given as “significant tracer uptake with rapid bi-phasic washout”, the “tracer clearance late after injection” value ([1]; blood and myocardium, up to 60 mins post-tracer injection) is given as “tracer increased in both, blood and myocardium, 25 mins post tracer injection” and the “washout kinetics from heart” value [2] is given as “biphasic washout kinetics from heart”.

For O=C(O)CCCCCCCCCCCCCCc1ccc(OCC[18F])cc1 [^18F-FAA], the “tracer clearance late after injection” value ([1]; rat, in vivo) was “still prevalent at 60 mins post-tracer injection”.

In the case of O=C(O)CCCCCCCCCCCCCCc1ccc(I)cc1 [^123I-lPPA, 15-(p-iodophenyl)-pentadecanoic acid], the “washout kinetics from heart” value [2] is given as “biphasic washout kinetics from heart”.
